ChEMBL document CHEMBL1201862, “PubChem BioAssay data set” (2004)
Active and inactive are the calls of the source.

What was measured:
[1] = target: T1, Estrogen receptor (Homo sapiens, UniProt P03372);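 further: potency for inhibiting coactivator peptide recruitment to the receptor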
T1 sequence (P03372 whole entry): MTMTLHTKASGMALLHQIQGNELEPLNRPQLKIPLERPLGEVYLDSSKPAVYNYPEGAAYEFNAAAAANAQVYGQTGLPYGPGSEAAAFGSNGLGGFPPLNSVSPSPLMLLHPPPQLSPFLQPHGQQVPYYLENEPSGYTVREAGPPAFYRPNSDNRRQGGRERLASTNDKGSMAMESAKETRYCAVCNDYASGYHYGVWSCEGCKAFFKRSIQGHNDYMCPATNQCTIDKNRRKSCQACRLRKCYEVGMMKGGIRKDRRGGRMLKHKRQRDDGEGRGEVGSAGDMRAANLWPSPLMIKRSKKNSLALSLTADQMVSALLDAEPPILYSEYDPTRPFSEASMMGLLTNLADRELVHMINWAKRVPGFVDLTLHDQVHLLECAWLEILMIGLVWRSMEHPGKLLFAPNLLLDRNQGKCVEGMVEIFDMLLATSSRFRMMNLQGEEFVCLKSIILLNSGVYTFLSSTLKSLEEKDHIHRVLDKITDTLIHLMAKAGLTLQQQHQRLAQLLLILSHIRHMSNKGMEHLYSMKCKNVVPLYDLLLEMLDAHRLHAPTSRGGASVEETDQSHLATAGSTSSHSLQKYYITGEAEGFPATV

[2] = target: T2, COUP transcription factor 2 (Homo sapiens, UniProt P24468); test: Luminescence-based cell-based high throughput dose response assay to identify inhibitors of COUP-TFII (NR2F2).; type: functional;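 further: HEK293 cells transiently cotransfected with COUP-TFII expression vector and reporter; luciferase reporter luminescence driven by COUP-TFII from the pX2-168 reporter plasmid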
T2 sequence (P24468 whole entry): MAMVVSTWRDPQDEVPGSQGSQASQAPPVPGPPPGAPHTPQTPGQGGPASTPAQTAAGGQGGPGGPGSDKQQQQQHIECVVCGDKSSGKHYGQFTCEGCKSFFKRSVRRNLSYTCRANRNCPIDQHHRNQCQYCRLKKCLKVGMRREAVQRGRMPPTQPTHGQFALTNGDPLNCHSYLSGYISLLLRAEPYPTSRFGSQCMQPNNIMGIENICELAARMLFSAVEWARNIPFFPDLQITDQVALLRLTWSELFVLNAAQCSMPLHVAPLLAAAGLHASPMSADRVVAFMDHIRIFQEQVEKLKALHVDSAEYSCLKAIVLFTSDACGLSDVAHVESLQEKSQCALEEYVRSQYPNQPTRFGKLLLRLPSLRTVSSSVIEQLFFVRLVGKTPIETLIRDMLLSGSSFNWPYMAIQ

[3] = target: Eukaryotic translation initiation factor 4E (Mus musculus, UniProt P63073); test: eIF4E–eIF4G protein interaction inhibitors, dose response, biochemical, TR-FRET (AID 855); type: functional;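 further: potency for disrupting eIF4E binding to eIF4GI seen as loss of FRET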
[4] = target: Induced myeloid leukemia cell differentiation protein Mcl-1 (Homo sapiens, UniProt Q07820); type: functional
[5] = cytotoxicity in OVCAR8 ovarian cancer cells, dose response, PAX8 project, cell-based, plate reader, dry powder samples (AID 743197); type: functional; settings: OVCAR-8
[6] = target: Paired box protein Pax-8 (Homo sapiens, UniProt Q06710); test: inhibitors of PAX8-driven TPO luciferase reporter, dose response, RMG-I cells, cherry-pick (AID 687027); type: functional, cell-based;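 further: luciferase reporter driven by Pax8 target thyroperoxidase promoter measured by SteadyGlo luminescence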
[7] = IGROV1 ovarian cancer cell cytotoxicity, dose response, PAX8 inhibitor project, plate reader, dry powder samples (AID 743043); type: functional, cell-based; settings: IGROV-1
[8] = NIH:OVCAR-3 ovarian cancer cell cytotoxicity, dose response, PAX8 inhibitor project, plate reader, dry powder samples (AID 743044); type: functional, cell-based
[9] = Jurkat T cell cytotoxicity, dose response, cytotoxicity control for P. falciparum gametocyte viability project, luminescence (AID 1117277); type: functional, cell-based;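 further: potency reflects loss of cellular ATP meaning fewer viable cells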
[10] = P. falciparum late gametocyte killing, dose response, luminescence (AID 1117278); type: functional, cell-based;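 further: gametocytes exposed to compound for 24 hours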
[11] = HEp-2 cell cytotoxicity, dose response, cytotoxicity control for RSV inhibitor project, HTS (AID 2410); type: functional; settings: human respiratory syncytial virus
[12] = off-target signal loss in HeLa-CEM21 co-culture – HeLa F-luc CTL cells, cherry-picked, counter-screen for HIV-1 Env fusion inhibitor project, dose response (AID 652040); type: functional, cell-based;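 further: potency for signal decrease marking cytotoxic or nonspecific inhibition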
[13] = inhibitors of clade B AD8 Env fusion, dose response, cell-based, cherry-pick (AID 652062); type: functional;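 further: luciferase signal from cell-cell fusion driven by HIV-1 clade B AD8 Env; potency is for inhibitors of fusion seen as a drop in luminescence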
[14] = inhibitors of HIV Env-driven cell fusion, dose response, cherry-pick (AID 652057); type: functional, cell-based
[15] = ZM109 Env clade C HIV-1 fusion inhibitors, dose response, HeLa effector, CEM target cells, luciferase, cherry-pick (AID 652058); type: functional, cell-based
[16] = Shn3 3'UTR reporter inhibitors, dose response, cell-based, Clone20 osteoblasts, firefly luciferase, cherry-picked (AID 624132); type: functional;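 further: firefly luciferase luminescence from reporter carrying the Shn3 3'UTR in osteoblasts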
[17] = cytotoxicity in HEK-293T cells, dose response, cytotoxicity control for BCR NF-kB inhibitor project, luminescence, B-cell screen hits (AID 489021); type: functional, cell-based;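 further: HEK-293T cells carrying an NF-kB luciferase reporter; cells exposed to compound for about 14 hours before viability readout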
[18] = HepG2 cell cytotoxicity, dose response, cytotoxicity control for Shn3 inhibitor project, CellTiter-Glo, cherry-picked (AID 624134); type: functional, cell-based
[19] = target: DNA dC->dU-editing enzyme APOBEC-3G (Homo sapiens, UniProt Q9HC16); type: functional;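 further: Dose-response counterscreen measuring inhibition of APOBEC3G DNA deaminase activity, run while confirming APOBEC3A inhibitors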
[20] = target: DNA dC->dU-editing enzyme APOBEC-3A (Homo sapiens, UniProt P31941); test: Dose Response confirmation of small molecule APOBEC3A DNA Deaminase Inhibitors via a fluorescence-based single-stranded DNA deaminase assay. [Related pubchem assays (depositor defined):AID493011, AID493024]; type: functional
[21] = target: Nonstructural protein 1 (Influenza A virus, UniProt Q194T2); type: functional, Influenza A virus (A/California/07/2009(H1N1))
[22] = target: Prothrombin (Homo sapiens, UniProt P00734); test: Thrombin 1536 HTS Dose Response Confirmation. [Related pubchem assays: 1046 (Thrombin 1536 HTS; hits were confirmed in this assay)]; type: functional
[23] = inhibitors of intracellular T. cruzi replication, confirmation, NIH3T3 host cells, beta-gal luminescence (AID 2044); type: functional, cell-based;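 further: intracellular parasites grown in NIH/3T3 mouse fibroblasts as host cells; luminescent beta-galactosidase reporter signal from transgenic T. cruzi replicating inside host cells; inhibitors lower the luminescence signal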
[24] = cytotoxicity toward NIH3T3 fibroblasts, dose response, counter-screen, cell-based, ATP luminescence, mouse fibroblasts (AID 2010); type: functional;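 further: cells exposed to compound for about 90 hours before reading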
[25] = target: T3, Carboxy-terminal domain RNA polymerase II polypeptide A small phosphatase 1 (Homo sapiens, UniProt Q9GZU7); test: inhibitors of CTDSP1, concentration-response testing, biochemical assay, absorbance-based, actives from ultra-high-throughput screening (AID 540297); type: functional
T3 sequence (Q9GZU7 whole entry): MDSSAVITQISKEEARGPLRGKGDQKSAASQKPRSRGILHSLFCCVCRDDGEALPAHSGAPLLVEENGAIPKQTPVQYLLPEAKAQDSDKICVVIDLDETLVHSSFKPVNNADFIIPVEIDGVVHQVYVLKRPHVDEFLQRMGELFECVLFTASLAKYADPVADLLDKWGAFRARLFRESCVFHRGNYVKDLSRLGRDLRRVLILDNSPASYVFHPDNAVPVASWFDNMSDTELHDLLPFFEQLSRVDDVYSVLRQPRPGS

[26] = target: T4, Mannose-6-phosphate isomerase (Homo sapiens, UniProt P34949); test: human PMI inhibitors, high substrate, primary screen, biochemical, fluorescence intensity, high mannose 6-phosphate (AID 1220)
T4 sequence (P34949 whole entry): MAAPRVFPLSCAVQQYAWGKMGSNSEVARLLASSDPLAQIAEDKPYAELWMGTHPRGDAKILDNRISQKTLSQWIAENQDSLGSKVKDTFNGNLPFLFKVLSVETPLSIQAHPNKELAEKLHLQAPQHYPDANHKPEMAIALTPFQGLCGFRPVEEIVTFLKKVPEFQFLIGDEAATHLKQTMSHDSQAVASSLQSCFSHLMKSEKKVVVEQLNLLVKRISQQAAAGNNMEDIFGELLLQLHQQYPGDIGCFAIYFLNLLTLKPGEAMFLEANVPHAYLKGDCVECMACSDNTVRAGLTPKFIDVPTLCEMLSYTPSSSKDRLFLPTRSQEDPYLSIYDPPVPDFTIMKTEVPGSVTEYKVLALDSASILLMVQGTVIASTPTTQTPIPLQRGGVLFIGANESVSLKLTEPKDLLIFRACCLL

Sequence of Induced myeloid leukemia cell differentiation protein Mcl-1 (Q07820 whole entry): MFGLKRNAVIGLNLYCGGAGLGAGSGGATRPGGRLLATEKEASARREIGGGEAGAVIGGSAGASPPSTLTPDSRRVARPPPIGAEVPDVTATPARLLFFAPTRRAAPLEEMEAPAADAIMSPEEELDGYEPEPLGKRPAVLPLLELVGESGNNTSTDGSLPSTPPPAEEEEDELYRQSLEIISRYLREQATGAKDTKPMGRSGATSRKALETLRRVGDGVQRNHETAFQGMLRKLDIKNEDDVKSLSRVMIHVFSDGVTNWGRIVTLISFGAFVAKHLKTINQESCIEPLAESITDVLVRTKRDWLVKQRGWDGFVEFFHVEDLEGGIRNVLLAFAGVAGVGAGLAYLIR
Sequence of Paired box protein Pax-8 (Q06710 whole entry): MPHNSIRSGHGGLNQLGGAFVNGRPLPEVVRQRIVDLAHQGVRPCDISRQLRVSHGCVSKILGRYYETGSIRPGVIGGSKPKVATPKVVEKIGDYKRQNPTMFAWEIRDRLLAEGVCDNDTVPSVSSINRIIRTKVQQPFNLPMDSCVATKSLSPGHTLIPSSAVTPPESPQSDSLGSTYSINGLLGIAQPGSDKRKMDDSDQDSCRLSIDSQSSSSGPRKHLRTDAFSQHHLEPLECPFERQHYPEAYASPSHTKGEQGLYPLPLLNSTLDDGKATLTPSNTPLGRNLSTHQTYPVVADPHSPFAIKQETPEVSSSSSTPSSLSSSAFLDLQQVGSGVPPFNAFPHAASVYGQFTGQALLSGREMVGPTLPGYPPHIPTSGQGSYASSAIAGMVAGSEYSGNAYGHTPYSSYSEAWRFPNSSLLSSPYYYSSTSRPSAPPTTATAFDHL
Sequence of DNA dC->dU-editing enzyme APOBEC-3A (P31941 whole entry): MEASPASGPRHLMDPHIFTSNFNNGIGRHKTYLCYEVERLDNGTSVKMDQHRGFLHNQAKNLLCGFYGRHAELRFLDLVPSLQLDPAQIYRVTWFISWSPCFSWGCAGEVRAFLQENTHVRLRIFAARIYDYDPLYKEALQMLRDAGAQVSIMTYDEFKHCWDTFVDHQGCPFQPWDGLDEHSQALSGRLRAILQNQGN
Sequence of Nonstructural protein 1 (Q194T2 whole entry): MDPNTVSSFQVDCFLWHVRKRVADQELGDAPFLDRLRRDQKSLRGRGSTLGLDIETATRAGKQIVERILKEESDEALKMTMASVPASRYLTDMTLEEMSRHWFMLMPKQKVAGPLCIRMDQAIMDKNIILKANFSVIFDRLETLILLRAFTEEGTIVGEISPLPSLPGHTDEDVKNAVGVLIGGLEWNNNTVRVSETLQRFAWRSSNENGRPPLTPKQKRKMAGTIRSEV
Sequence of DNA dC->dU-editing enzyme APOBEC-3G (Q9HC16 whole entry): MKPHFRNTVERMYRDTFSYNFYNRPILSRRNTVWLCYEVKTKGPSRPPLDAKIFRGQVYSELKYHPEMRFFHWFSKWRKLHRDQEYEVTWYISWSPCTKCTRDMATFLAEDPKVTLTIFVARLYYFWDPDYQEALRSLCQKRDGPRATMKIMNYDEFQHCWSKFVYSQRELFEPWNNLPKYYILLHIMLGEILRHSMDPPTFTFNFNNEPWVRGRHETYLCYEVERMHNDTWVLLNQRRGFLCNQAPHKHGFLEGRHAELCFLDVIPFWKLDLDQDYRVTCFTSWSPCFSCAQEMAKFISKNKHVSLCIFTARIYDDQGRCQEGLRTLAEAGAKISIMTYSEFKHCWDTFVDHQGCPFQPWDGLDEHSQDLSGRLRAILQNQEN
Sequence of Eukaryotic translation initiation factor 4E (P63073 whole entry): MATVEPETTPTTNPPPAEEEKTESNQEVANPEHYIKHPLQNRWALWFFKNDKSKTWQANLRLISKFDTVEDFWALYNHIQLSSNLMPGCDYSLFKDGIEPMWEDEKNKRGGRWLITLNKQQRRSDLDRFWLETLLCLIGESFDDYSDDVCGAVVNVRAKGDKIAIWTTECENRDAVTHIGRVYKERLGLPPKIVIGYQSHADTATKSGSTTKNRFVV

## CC(=O)NCCOC(=O)Nc1ccncc1
[1]
  IC50: > 50 µM (not active)

## Cc1ccc(-n2nc3c(=O)n(C(C)C(=O)NCCC4=CCCCC4)nc(C)c3c2C)cc1 (stereo unspecified)
[2]
  IC50: 6.62 µM (active)

## Cc1ccc(CNC(=O)c2ccc(-n3cccc3)cc2)cc1
[3]
  IC50: 50 µM (inactive)
[4]
  IC50: 3.27 µM (active)

## C[C@@H]1CCCCO[C@@H](CN(C)Cc2ccc(C(F)(F)F)cc2)[C@H](C)CN([C@@H](C)CO)C(=O)c2cc(NC(=O)NC3CCCCC3)ccc2O1
[5]
  AC50: 37.5 µM (active)
[6]
  AC50: 8.39 µM (active)
[7]
  AC50: 50.9 µM (active)
[8]
  AC50: 45.2 µM (active)

## CC(Cc1ccccn1)NC(=O)CCc1nnc(C2CCCCC2)o1 (stereo unspecified)
[9]
  IC50: > 83.3 µM (inactive)
[10]
  IC50: > 109 µM (inactive)

## Cc1ccc(Nc2nnc(SCC(=O)NCc3ccco3)s2)cc1
[1]
  IC50: 28.8 µM (active)

## O=C(c1ccccc1F)N1CC(=O)N2[C@@H](CO)[C@@H](c3ccc(C#Cc4ccc(F)cc4)cc3)[C@@H]2C1
[5]
  AC50: 41.1 µM (active)
[6]
  AC50: 5.77 µM (active)
[7]
  AC50: 19.2 µM (active)
[8]
  AC50: 8.76 µM (active)

## CCOC(=O)C1=C(Nc2ccc(OC)cc2)S/C(=C\c2cc(OC)c(O)c(OC)c2)C1=O
[4]
  IC50: 4.24 µM (not active)

## O=C(CCC(=O)N1CCN(S(=O)(=O)c2ccc3ccccc3c2)CC1)Nc1cc(Cl)cc(Cl)c1
[11]
  CC50: > 6.25 µM (active)
[12]
  AC50: 6.16 µM (active)
[13]
  AC50: 14.2 µM (active)
[14]
  AC50: 3.61 µM (active)
[15]
  AC50: 4.28 µM (active)

## COC(=O)C1=C(c2ccc(-c3ccccc3)c(F)c2)C[C@@H]2CC[C@H]1N2C(=O)N1CCCC1
[16]
  AC50: 6.06 µM (active)
[17]
  IC50: > 80 µM (inactive)
[2]
  IC50: 8.17 µM (active)
[18]
  AC50: 6.77 µM (active)

## COc1ccc(OC)c(NS(=O)(=O)c2ccc(NC(C)=O)cc2)c1
[9]
  IC50: > 83.3 µM (inactive)
[10]
  IC50: > 109 µM (inactive)

## Cc1onc(-c2ccccc2Cl)c1C(=O)NCCN1CCOCC1
[9]
  IC50: > 83.4 µM (inactive)
[10]
  IC50: > 109 µM (inactive)

## CCN1C(NCC2CC2)=N[C@@H](c2cccc(C(F)(F)F)c2)C(C(=O)OC)=C1C
[19]
  IC50: 6.71 µM (active)
[20]
  IC50: 4.22 µM (active)

## COc1ccc(N2CC(C(=O)N/N=C/c3cc([N+](=O)[O-])ccc3O)CC2=O)cc1 (stereo unspecified)
[21]
  IC50: 17.8 µM (active)

## Cc1ccc(C(=O)NC(C)C(c2cccs2)N2CCCC2)s1 (stereo unspecified)
[22]
  IC50: > 50 µM (not active)
[9]
  IC50: > 83.3 µM (inactive)
[10]
  IC50: > 109 µM (inactive)

## N#C/C(=C\C1=C(N2CCOCC2)C(=C\c2ccccc2)/CC1)C(=O)Nc1ccccc1F
[23]
  EC50: 1.01 µM (active)
[24]
  EC50: > 60 µM (not active)
[21]
  IC50: 13.3 µM (active)

## COCC(=O)n1nc(-c2ccccc2)nc1NCc1cccs1
[22]
  IC50: 0.467 µM (active)

## CCc1ccc2[nH]c(=O)c(CN(Cc3ccc4c(c3)OCO4)C(=O)c3ccco3)cc2c1
[1]
  IC50: 26.2 µM (active)

## CS(=O)(=O)Nc1cccc(C(=O)CC2(O)C(=O)Nc3ccc(Br)cc32)c1 (stereo unspecified)
[22]
  IC50: 0.525 µM (active)

## COc1cc(/C=C(/C#N)C(=O)NCCCc2ccccc2)ccc1OCC(=O)O
[19]
  IC50: 3.23 µM (active)
[20]
  IC50: 1.61 µM (active)

## COc1ccccc1NC(=O)CSc1nnc(-c2ccc(NC(C)=O)cc2)n1C
[9]
  IC50: > 83.3 µM (inactive)
[10]
  IC50: > 109 µM (inactive)

## COc1ccccc1/C=c1\sc2nc(-c3ccco3)nn2c1=O
[25]
  IC50: 5 µM (active)
[1]
  IC50: 17.5 µM (active)
[4]
  IC50: 7.38 µM (active)

## NC(=O)c1c(NC(=O)Cn2nc(C(=O)O)c3ccccc3c2=O)sc2c1CCCC2
[22]
  IC50: 24.3 µM (active)

## Cc1ccc(Cl)cc1NS(=O)(=O)c1c(C)[nH]c(=O)[nH]c1=O
[22]
  IC50: > 50 µM (not active)

## C[C@@H]1CCCCO[C@@H](CN(C)Cc2ccc(Cl)c(Cl)c2)[C@H](C)CN([C@H](C)CO)C(=O)c2cc(NS(=O)(=O)c3ccc(Cl)cc3)ccc2O1
[5]
  AC50: > 70 µM (inactive)
[6]
  AC50: 8.68 µM (active)
[7]
  AC50: 59.2 µM (active)

## S=C(Nc1ccc2c[nH]nc2c1)Nc1ccc(Cl)cc1Cl
[26]
  IC50: > 50 µM (not active)

## CCC(C)N1C(=O)NC(=O)C2(Cc3c(ccc4ccccc34)N(C)C2)C1=O (stereo unspecified)
[26]
  IC50: > 50 µM (not active)

## OCC(CO)(CO)/N=C/c1c(O)ccc2ccccc12
[26]
  IC50: 38.6 µM (active)
